Values quoted from earlier work, collected in patent publication US8197846B2, “Sustained release pharmaceutical composition” (Astellas Pharma Inc., priority 2003, dated 2012).
Structures can show the parent of a compound that is named as a salt.

Columns and labels:
[1] = not given; remark: listed apart in the source

SMILES	adverse reactions when administered as powder triturated with lactose (powder triturated with lactose)	adverse reactions (including abnormal clinical data) presumably related to the agent (104 cases among 4724 cases, approval and post marketing surveillance in Japan)	frequency of hypotension, postural hypotension, blood pressure, tachycardia and palpitation (package insert, circulatory area)	frequency of orthostatic syncope, headache and sleepiness (package insert, psychoneural area)	Cmax and AUC versus dose ([1]; 0.1 to 0.6 mg oral, healthy adult volunteers)	day on which plasma concentration profiles reached the steady state ([1]; repeated administration per os for seven days)
CCOc1ccccc1OCCN[C@H](C)Cc1ccc(OC)c(S(N)(=O)=O)c1 [Tamsulosin, (R)(−)-5-[2-[[2-(o-ethoxyphenoxy)ethyl]-amino]propyl]-2-methoxybenzenesulfonamide]	postural hypotension was induced	–	–	–	–	–
CCOc1ccccc1OCCN[C@H](C)Cc1ccc(OC)c(S(N)(=O)=O)c1 [tamsulosin hydrochloride]	–	2.2%	less than 0.1%	less than 0.1%	increased almost in proportion to the dose administered	4 days
